US9540366B2, “Ring-fused heterocyclic compound” (Kyowa Hakko Kirin Co., Ltd., priority 2012, dated 2017)
Like-named read-outs stand apart in the source and are kept apart here.

Legend:
[1] = target: T1, human Cav3.2 T-type Ca2+ channel (Homo sapiens, UniProt O95180); assay: Inhibitory effect for intracellular calcium response via Cav3.2 T-type Ca2+ channels (FLIPR Calcium 3 Assay Kit); assay type: cell-based
T1 construct: expressed in transfected cells; host or cells: KJMGER8 cells (Namalwa cell-derived cell line)

[2] = system: morphine-induced pruritus mice; assay: Inhibitory effect for pruritus in morphine-induced pruritus mice; assay type: in vivo; conditions: given 30 minutes or 1 hour before intrathecal morphine, scratching counted for 30 minutes, male ddY mice
Method: Inhibitory Effect for Pruritus in Morphine-Induced Pruritus Mice
Morphine (1 nmol/5 μL, dissolved in physiological saline) or physiological saline was intrathecally administered between the fifth and sixth lumbar vertebrae of male ddY mice using a microsyringe fitted with a 30-gauge injection needle. Mice to which only morphine was administered were referred to as a control group, and mice to which only physiological saline was administered were referred to as a physiological saline-administered group.
The number of scratching behavior with the hind legs which began to be observed immediately after the morphine administration was measured for 30 minutes. Because mice show continuous scratching actions in each scratching behavior, a series of such actions was counted as a single scratching behavior.
Each test compound was administered 30 minutes or 1 hour before the morphine administration. The test compound was suspended in a 0.5% methylcellulose solution and was prepared plural administration solutions of different concentrations, and each of them was orally administered in a volume of 10 mL/kg.

T1 sequence (O95180 whole entry): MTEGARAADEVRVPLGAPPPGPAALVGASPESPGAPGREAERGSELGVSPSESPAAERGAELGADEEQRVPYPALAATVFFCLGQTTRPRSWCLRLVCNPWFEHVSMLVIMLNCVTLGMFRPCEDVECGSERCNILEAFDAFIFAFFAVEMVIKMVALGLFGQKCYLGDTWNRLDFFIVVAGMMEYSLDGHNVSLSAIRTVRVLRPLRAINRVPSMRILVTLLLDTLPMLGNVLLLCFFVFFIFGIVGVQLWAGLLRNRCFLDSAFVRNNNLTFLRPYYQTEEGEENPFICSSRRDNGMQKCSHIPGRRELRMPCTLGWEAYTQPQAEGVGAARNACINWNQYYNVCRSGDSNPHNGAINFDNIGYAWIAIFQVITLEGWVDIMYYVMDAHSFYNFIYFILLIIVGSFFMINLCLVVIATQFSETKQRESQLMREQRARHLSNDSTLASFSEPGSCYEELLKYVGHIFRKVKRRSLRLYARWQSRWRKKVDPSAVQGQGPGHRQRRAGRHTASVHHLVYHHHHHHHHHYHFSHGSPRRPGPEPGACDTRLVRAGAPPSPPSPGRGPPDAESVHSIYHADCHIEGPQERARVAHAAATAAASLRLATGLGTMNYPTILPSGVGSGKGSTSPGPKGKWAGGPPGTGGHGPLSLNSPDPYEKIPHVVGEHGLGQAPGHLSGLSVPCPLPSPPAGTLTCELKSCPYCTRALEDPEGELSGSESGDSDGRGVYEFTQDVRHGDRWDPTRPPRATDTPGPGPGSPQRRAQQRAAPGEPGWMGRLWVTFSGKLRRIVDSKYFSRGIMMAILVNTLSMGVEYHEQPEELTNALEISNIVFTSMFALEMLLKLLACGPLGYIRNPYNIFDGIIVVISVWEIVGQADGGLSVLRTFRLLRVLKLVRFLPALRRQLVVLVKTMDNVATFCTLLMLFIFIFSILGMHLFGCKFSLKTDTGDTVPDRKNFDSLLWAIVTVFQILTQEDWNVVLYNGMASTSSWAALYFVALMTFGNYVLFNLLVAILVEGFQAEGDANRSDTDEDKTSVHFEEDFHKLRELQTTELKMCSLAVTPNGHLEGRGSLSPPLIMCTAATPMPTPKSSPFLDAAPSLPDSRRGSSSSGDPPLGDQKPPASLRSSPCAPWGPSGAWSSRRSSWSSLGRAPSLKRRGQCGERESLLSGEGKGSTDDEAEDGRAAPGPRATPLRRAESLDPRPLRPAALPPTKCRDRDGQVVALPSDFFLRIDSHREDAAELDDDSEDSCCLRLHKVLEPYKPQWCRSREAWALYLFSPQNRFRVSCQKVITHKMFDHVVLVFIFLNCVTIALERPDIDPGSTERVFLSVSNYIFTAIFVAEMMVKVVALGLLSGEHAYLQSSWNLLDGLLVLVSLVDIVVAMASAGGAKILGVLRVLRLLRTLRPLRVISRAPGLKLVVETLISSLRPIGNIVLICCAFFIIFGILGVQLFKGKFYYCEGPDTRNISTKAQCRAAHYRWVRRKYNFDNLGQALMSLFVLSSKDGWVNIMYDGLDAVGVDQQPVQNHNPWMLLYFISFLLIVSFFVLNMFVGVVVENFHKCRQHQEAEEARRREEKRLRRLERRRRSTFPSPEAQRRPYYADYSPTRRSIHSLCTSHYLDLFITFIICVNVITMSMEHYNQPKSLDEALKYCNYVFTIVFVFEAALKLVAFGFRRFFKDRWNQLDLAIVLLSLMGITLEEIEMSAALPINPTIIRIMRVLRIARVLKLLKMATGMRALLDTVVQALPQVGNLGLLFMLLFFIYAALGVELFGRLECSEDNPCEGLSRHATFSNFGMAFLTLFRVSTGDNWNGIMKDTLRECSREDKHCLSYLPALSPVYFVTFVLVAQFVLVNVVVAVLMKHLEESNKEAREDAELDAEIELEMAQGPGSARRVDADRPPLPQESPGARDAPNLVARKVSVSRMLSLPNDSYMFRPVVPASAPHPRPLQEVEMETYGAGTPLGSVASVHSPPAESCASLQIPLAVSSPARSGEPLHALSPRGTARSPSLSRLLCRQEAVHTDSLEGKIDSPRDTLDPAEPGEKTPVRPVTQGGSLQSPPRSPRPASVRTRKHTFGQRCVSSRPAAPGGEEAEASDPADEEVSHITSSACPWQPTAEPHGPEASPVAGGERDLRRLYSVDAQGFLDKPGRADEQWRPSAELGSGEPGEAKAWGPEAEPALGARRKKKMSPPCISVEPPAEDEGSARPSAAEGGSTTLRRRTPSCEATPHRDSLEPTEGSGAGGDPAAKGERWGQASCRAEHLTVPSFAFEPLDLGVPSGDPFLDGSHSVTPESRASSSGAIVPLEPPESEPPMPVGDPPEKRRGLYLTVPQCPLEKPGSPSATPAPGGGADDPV

| IC50 ([1]; human Cav3.2-expressing KJMGER8 cells (Namalwa-derived), calcium response induced by 5 mmol/L CaCl2, 3 μmol/L mibefradil as reference, read-out: IC50 for the human Cav3.2 T-type Ca2+ current) | SMILES | IC50 [1] | inhibition of the increase of the scratching behavior in morphine-induced pruritus mice ([2]; oral dose of 10 mg/kg or less) | inhibition of the increase of the scratching behavior in morphine-induced pruritus mice ([2]; oral dose of 30 mg/kg or less) |
| --- | --- | --- | --- | --- |
|  | COC(C)(C)CNC(=O)c1cc(C#N)n2c(CC3CCC(F)(F)CC3)c(C(C)(F)F)nc2c1 [Compound 164, 5-Cyano-3-[(4,4-difluorocyclohexyl)methyl]-2-(1,1-difluoroethyl)-N-(2-methoxy-2-methylpropyl)imidazo[1,2-a]pyridine-7-carboxamide] | ≤ 0.1 µM | inhibited the increase of the scratching behavior |  |
|  | COC(C)(C)CNC(=O)c1cc2nc(C(F)(F)F)c(CC3CCC(F)(F)CC3)n2c(C#N)c1Cl [Compound 173, 6-Chloro-5-cyano-3-[(4,4-difluorocyclohexyl)methyl]-N-(2-methoxy-2-methylpropyl)-2-(trifluoromethyl)imidazo[1,2-a]pyridine-7-carboxamide] | ≤ 0.1 µM | inhibited the increase of the scratching behavior |  |
|  | [2H]C([2H])([2H])OC(C)(C)CNC(=O)c1cc2nc(C(C)(F)F)c(CC3CCC(F)(F)CC3)n2c(C#N)c1C [Compound 190, 5-Cyano-3-[(4,4-difluorocyclohexyl)methyl]-2-(1,1-difluoroethyl)-N-(2-methoxy-d3-2-methylpropyl)-6-methylimidazo[1,2-a]pyridine-7-carboxamide] | ≤ 0.1 µM | inhibited the increase of the scratching behavior |  |
|  | [2H]C([2H])([2H])OC(C)(C)CNC(=O)c1cc(C#N)n2c(CC3CCC(F)(F)CC3)c(C(C)(F)F)nc2c1 [Compound 194, 5-Cyano-3-[(4,4-difluorocyclohexyl)methyl]-2-(1,1-difluoroethyl)-N-(2-methoxy-d3-2-methylpropyl)imidazo[1,2-a]pyridine-7-carboxamide] | ≤ 0.1 µM | inhibited the increase of the scratching behavior |  |
| ≤ 0.1 µM | CC(C)(CNC(=O)c1cc(C#N)n2c(CC3CCC(F)(F)CC3)c(C(F)(F)F)nc2c1)S(C)(=O)=O [Compound 189, 5-Cyano-3-[(4,4-difluorocyclohexyl)methyl]-N-[2-methyl-2-(methylsulfonyl)propyl]-2-(trifluoromethyl)imidazo[1,2-a]pyridine-7-carboxamide] |  | inhibited the increase of the scratching behavior |  |
|  | N#Cc1cc(C(=O)NC2CCOCC2)cc2nc(C(F)(F)F)c(CC3CCC(F)(F)CC3)n12 [Compound 40] | ≤ 0.1 µM |  | inhibited the increase of the scratching behavior |
|  | COC(C)(C)CNC(=O)c1cc2nc(C(C)(F)F)c(CC3CCC(F)(F)CC3)n2c(C#N)c1C [Compound 184, 5-Cyano-3-[(4,4-difluorocyclohexyl)methyl]-2-(1,1-difluoroethyl)-N-(2-methoxy-2-methylpropyl)-6-methylimidazo[1,2-a]pyridine-7-carboxamide] | ≤ 0.1 µM | inhibited the increase of the scratching behavior |  |
|  | CC(F)(F)c1nc2cc(C(=O)N[C@H]3C[C@@H]4CC[C@H]3O4)cc(C#N)n2c1CC1CCC(F)(F)CC1 [Compound 183, N-[(1R,2S,4S)-7-Oxabicyclo[2.2.1]heptan-2-yl]-5-cyano-3-[(4,4-difluorocyclohexyl)methyl]-2-(1,1-difluoroethyl)imidazo[1,2-a]pyridine-7-carboxamide] | ≤ 0.1 µM | inhibited the increase of the scratching behavior |  |
|  | Cc1c(C(=O)NC2CCOCC2)cc2nc(C(C)(F)F)c(CC3CCC(F)(F)CC3)n2c1C#N [Compound 185, 5-Cyano-3-[(4,4-difluorocyclohexyl)methyl]-2-(1,1-difluoroethyl)-6-methyl-N-(tetrahydro-2H-pyran-4-yl)imidazo[1,2-a]pyridine-7-carboxamide] | ≤ 0.1 µM | inhibited the increase of the scratching behavior |  |
